Source: patent US10925858B2, “S-nitrosoglutathione (GSNO) and GSNO reductase inhibitors for use in therapy” (MUSC FOUNDATION FOR RESEARCH DEVELOPMENT, priority 2017, dated 2021)

What was measured:
[1] = system: cell adhesion molecules (ICAM-1 and VCAM-1); experiment: Western blotting, protein expression of cell adhesion molecules in isolated microvessels of diabetic mice; type: in vivo; details: cortex and hippocampus microvessels, GSNO vs untreated diabetic group
Procedure: (§1) Male laca mice weighing between 28-32 g were procured from the Central Animal House, Panjab University, Chandigarh. The animals were acclimatized and were fed with standard pellet diet and water ad libitum. The experimental protocols were approved by the Institutional Ethics Committee and were conducted according to Indian National Science Academy (INSA) guidelines for the use and care of experimental animals. The animals were divided into four groups: (i) Control animals received phosphate buffered saline (PBS) throughout the study; (ii) Control+GSNO animals were administered with GSNO 100 μg/kg body weight orally, dissolved in PBS after every 24 h for 8 weeks; (iii) Diabetic animals were injected with STZ at a dose of 40 mg/kg body weight intraperitoneally for 5 days dissolved in 0.1 mol/L citrate buffer, pH 4.5 and Diabetic+GSNO mice were administered GSNO 100 μg/kg body weight orally dissolved in PBS after every 24 h for 8 weeks after the induction of diabetes. Animals were assessed weekly for development of diabetic encephalopathy in terms of memory deficits. All experimental procedures were done on mice at the end of study. The microvessels were isolated by the method described by Brooks et al., (2005). […]

cerebral microvessels = experiment: Transmission electron microscopy, ultrastructure of microvessels of diabetic mice; type: in vivo; details: cortex and hippocampus, GSNO supplemented diabetic animals, 8 weeks
Procedure: as §1, with “Transmission electron microscopy was carried out” for “The microvessels were isolated”, “Gao” for “Brooks”

With `N[C@@H](CCC(=O)N[C@@H](CSN=O)C(=O)NCC(=O)O)C(=O)O` [GSNO, S-nitrosoglutathione] the “protein expression of ICAM-1” value [1] was “significantly mitigate”, the “protein expression of VCAM-1” value [1] was “significantly mitigate” and the ultrastructure of microvessels (cerebral microvessels) was “improved the ultrastructure of the damaged microvessels”.
